Data on 14 compounds can be found in ChEMBL document CHEMBL1149377, “8-(1-Naphthalen-2-yl-vinyl)-6,7,10-trioxaspiro (4.5) decane, a new 1,2,4-trioxane effective against rodent and simian malaria” (2006).

Molecules are shown by their SMILES.

Assay [1] relates to Plasmodium yoelii. Kind of assay: Antimalarial activity against Plasmodium yoelii in Swiss mice (Mus musculus) model at 96 mg/kg peroral dose. In kind it is functional. The settings on record: route oral.
Assay [2] has as its system Plasmodium yoelii. The assay can be described thus: Antimalarial activity in Plasmodium yoelii MDR infected Swiss mice (Mus musculus) at 96 mg/kg Intramuscular dose. The assay is classed as functional. To be noted: im.
In assay [3] the test system is Plasmodium yoelii. The assay can be described thus: Antimalarial activity against Plasmodium yoelii infected Swiss mice (Mus musculus) at 48 mg/kg peroral dose. In kind it is functional. The settings on record: route oral.
The test system of assay [4] is Plasmodium yoelii. The assay can be described thus: Antimalarial activity against Plasmodium yoelii infected Swiss mice (Mus musculus) at 48 mg/kg Intramuscular dose. To be noted: im. The assay is classed as functional.
The subject of assay [5] is Plasmodium yoelii. Kind of assay: Antimalarial activity against Plasmodium yoelii infected Swiss mice (Mus musculus) at 72 mg/kg Intramuscular dose. The settings on record: im. In kind it is functional.
Assay [6] deals with Plasmodium yoelii. Kind of assay: Antimalarial activity against Plasmodium yoelii infected Swiss mice (Mus musculus) at 192 mg/kg peroral dose. To be noted: route oral. In kind it is functional.
The test system of another assay is Plasmodium cynomolgi. The assay can be described thus: Elimination of parasitaemia in Plasmodium cynomolgi infected Rhesus monkeys (Macaca mulatta) at 20 mg/kg intramuscular or 40 mg/kg peroral dose. In kind it is functional, organism-based.
Assay [7] deals with Plasmodium yoelii. The assay can be described thus: Antimalarial activity against Plasmodium yoelii infected Swiss mice (Mus musculus) at 24 mg/kg intramuscular dose. The settings on record: im. The assay is classed as functional.

One may read the inhibition in vivo as the share of the control response that was lost under treatment. Low readings indicate a response near the control, high ones a response far below the control. Take `C=C(c1ccc2ccc3ccccc3c2c1)C1COC2(CCCC2)OO1` (configuration not stated): the figures for the inhibition in vivo at 96 mg/kg in the assay on Plasmodium yoelii [1] and in the assay on Plasmodium yoelii [2] were 64% and 99%, respectively.

Regarding `C=C(c1ccc2c(c1)Cc1ccccc1-2)C1COC2(CCCCC2)OO1` (configuration not stated), the inhibition in vivo at 96 mg/kg in the assay with Plasmodium yoelii [1] turned out to be 100%; in the assay with Plasmodium yoelii [2] it was 83%.

`C=C(c1ccc2ccc3ccccc3c2c1)C1COC2(CCCCC2)OO1` (configuration not stated): the results for the inhibition in vivo at 96 mg/kg in the assay on Plasmodium yoelii [1] and with Plasmodium yoelii [2] were 99% and 13%, respectively.

As for `C=C(c1ccc2c(c1)Cc1ccccc1-2)C1COC2(CCCC2)OO1` (configuration not stated), the inhibition in vivo at 96 mg/kg in the assay on Plasmodium yoelii [1] and in the assay with Plasmodium yoelii [2] was 100% throughout.

As to `C=C(c1ccc(F)cc1)C1COC2(CCCCC2)OO1` (configuration not stated), the inhibition in vivo at 96 mg/kg came to 14% with Plasmodium yoelii [1] and 89% in the assay on Plasmodium yoelii [2].

For `C=C(c1cccc2ccccc12)C1COC2(CCCCC2)OO1` (configuration not stated), the inhibition in vivo at 96 mg/kg was found to be 83% with Plasmodium yoelii [1] and 87% with Plasmodium yoelii [2].

Compound `CCN(CC)CCCC(C)Nc1ccnc2cc(Cl)ccc12` (configuration not stated) [CHLOROQUINE] returned an inhibition in vivo at 96 mg/kg in the assay with Plasmodium yoelii [1] of 100%. In the assay with Plasmodium yoelii [3], this compound displayed an inhibition in vivo at 48 mg/kg of 100%.

Consider `C=C(c1ccc2c(ccc3ccccc32)c1)C1COC2(CCCCC2)OO1` (configuration not stated), for which the results for the inhibition in vivo at 96 mg/kg in the assay on Plasmodium yoelii [1] and in the assay with Plasmodium yoelii [2] were 100% and 81%, respectively.

In turn, `C=C(c1ccc2ccccc2c1)C1COC2(CCCCC2)OO1` (configuration not stated) came in with an inhibition in vivo at 48 mg/kg with Plasmodium yoelii [4] of 60%. The same compound gave an inhibition in vivo at 96 mg/kg with Plasmodium yoelii [2] of 97%.

`C=C(c1ccc2ccccc2c1)C1COC2(CCCC2)OO1` (configuration not stated): in the assay with Plasmodium yoelii [4], the inhibition in vivo at 48 mg/kg was found to be 97%. For the same compound, the inhibition in vivo at 96 mg/kg with Plasmodium yoelii [1] came out at 90%; in the assay with Plasmodium yoelii [2], 100%. 72 mg/kg produced 96% inhibition in vivo in the assay with Plasmodium yoelii [5]. The same compound gave an inhibition in vivo at 192 mg/kg with Plasmodium yoelii [6] of 100%. In the assay with Plasmodium cynomolgi, this compound had a clearance of 100%.

In the case of `C[C@@H]1CC[C@H]2[C@@H](C)C(=O)O[C@@H]3O[C@@]4(C)CC[C@@H]1[C@]32OO4` [ARTEMISININ], the inhibition in vivo at 48 mg/kg in the assay with Plasmodium yoelii [4] turned out to be 100%. In the assay with Plasmodium yoelii [7], this compound yielded an inhibition in vivo at 24 mg/kg of 100%.

Take `C=C(c1ccccc1)C1COC2(CCCC2)OO1` (configuration not stated): the inhibition in vivo at 96 mg/kg came out at 15% with Plasmodium yoelii [1] and 100% in the assay on Plasmodium yoelii [2].

Take `C=C(c1cccc2ccccc12)C1COC2(CCCC2)OO1` (configuration not stated): the inhibition in vivo at 96 mg/kg in the assay with Plasmodium yoelii [1] was 78%; with Plasmodium yoelii [2] it was 91%.

Take `C=C(c1ccc2c(ccc3ccccc32)c1)C1COC2(CCCC2)OO1` (configuration not stated): the inhibition in vivo at 96 mg/kg in the assay on Plasmodium yoelii [1] and in the assay with Plasmodium yoelii [2] was 100% each time.
